Experiments:
Details in all cases: 48 h
[1] = system: SEM cells; assay: AUC of viability dose-response curve (% viability x log10 dose units); higher = less sensitive
Method in brief: (§1)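 Area under the curve was integrated by trapezoidal rule from a log-logistic fit of normalised viability, with curves exceeding full viability scaled and quality-control failures removed. The fit had four parameters over log10 doses. Viability came from CellTiter-Glo One luminescence, normalised per plate to DMSO and cell-free wells, after leukemia cells adapted to each medium (500 or 1000 cells/well, 1536-well plates) were exposed to library compounds in DMSO for 48 h at 37°C. The 11 threefold doses ran from 47 μM to 0.79 nM.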

[2] = system: P12-Ichikawa; assay: as above
Method in brief: as §1

[3] = system: NOMO1; assay: as above
Method in brief: as §1

[4] = system: SEM cells; assay: cell viability relative to DMSO control; higher = less cytotoxic
Method in brief: (§2)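 Library compounds in DMSO were pin-dosed in an 11-point threefold series (47 μM to 0.79 nM) onto leukemia cells in 1536-well plates (5 μl). Plates held 500 cells/well of NOMO1 or SEM or 1000 cells/well of P12-Ichikawa, each adapted for at least four passages in each medium. Luminescence was read with CellTiter-Glo One after 48 h at 37°C. Viability means the per-plate percentage relative to DMSO wells, using cell-free wells as background.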

[5] = system: P12-Ichikawa; assay: as above
Method in brief: as §2

[6] = system: NOMO1; assay: as above
Method in brief: as §2

Nc1nc2ccc(OC(F)(F)F)cc2s1
AUC of viability dose-response curve
Details	[1]	[2]	[3]
HPLM + 10% dialyzed FBS	462	462	453
RPMI 5 mM glucose + 10% FBS	461	461	455
RPMI 5 mM glucose + 10% dialyzed FBS	461	466	455

cell viability [%], [4]
Details	HPLM + 10% dialyzed FBS	RPMI 5 mM glucose + 10% dialyzed FBS
0.000781 µM	137	127
0.00234 µM	119	123
0.00702 µM	120	125
0.0211 µM	133	131
0.0632 µM	134	119
0.19 µM	127	129
0.569 µM	131	147
1.71 µM	131	123
5.12 µM	130	130
15.4 µM	114	118
46.1 µM	78.3	64

C=C[C@H]1CN2CCC1C[C@@H]2[C@@H](O)c1ccnc2ccccc12 (stereo not given in full)
AUC of viability dose-response curve
Details	[1]	[2]	[3]
HPLM + 10% dialyzed FBS	448	443	453
RPMI 5 mM glucose + 10% FBS	435	436	422
RPMI 5 mM glucose + 10% dialyzed FBS	451	429	420

cell viability [%]
Details	[4]	[5]	[6]
HPLM + 10% dialyzed FBS, 0.000781 µM	95.4	101	97
HPLM + 10% dialyzed FBS, 0.00234 µM	95.7	99.5	109
HPLM + 10% dialyzed FBS, 0.00702 µM	103	95.9	105
HPLM + 10% dialyzed FBS, 0.0211 µM	112	99.6	93.7
HPLM + 10% dialyzed FBS, 0.0632 µM	98.5	100	99.7
HPLM + 10% dialyzed FBS, 0.19 µM	96.1	92.4	107
HPLM + 10% dialyzed FBS, 0.569 µM	91	87.7	92.7
HPLM + 10% dialyzed FBS, 1.71 µM	93.6	93.6	97.1
HPLM + 10% dialyzed FBS, 5.12 µM	85.2	85.8	86
HPLM + 10% dialyzed FBS, 15.4 µM	89.1	90.7	93.1
HPLM + 10% dialyzed FBS, 46.1 µM	72.1	78.2	74.9
RPMI 5 mM glucose + 10% FBS, 0.000781 µM	92	93.8	90.3
RPMI 5 mM glucose + 10% FBS, 0.00234 µM	105	93.4	90.6
RPMI 5 mM glucose + 10% FBS, 0.00702 µM	93.2	99.5	94.1
RPMI 5 mM glucose + 10% FBS, 0.0211 µM	106	94.7	85.4
RPMI 5 mM glucose + 10% FBS, 0.0632 µM	108	103	91.4
RPMI 5 mM glucose + 10% FBS, 0.19 µM	104	90.9	91.1
RPMI 5 mM glucose + 10% FBS, 0.569 µM	100	86.4	84.9
RPMI 5 mM glucose + 10% FBS, 1.71 µM	92.9	92.3	86.1
RPMI 5 mM glucose + 10% FBS, 5.12 µM	73.5	90.8	89.9
RPMI 5 mM glucose + 10% FBS, 15.4 µM	78.1	83.3	83.8
RPMI 5 mM glucose + 10% FBS, 46.1 µM	51.1	67.8	85.2
RPMI 5 mM glucose + 10% dialyzed FBS, 0.000781 µM	106	101	101
RPMI 5 mM glucose + 10% dialyzed FBS, 0.00234 µM	100	89.4	114
RPMI 5 mM glucose + 10% dialyzed FBS, 0.00702 µM	90	91.7	96.7
RPMI 5 mM glucose + 10% dialyzed FBS, 0.0211 µM	106	96.6	99.3
RPMI 5 mM glucose + 10% dialyzed FBS, 0.0632 µM	102	97.2	92.6
RPMI 5 mM glucose + 10% dialyzed FBS, 0.19 µM	103	92.6	96
RPMI 5 mM glucose + 10% dialyzed FBS, 0.569 µM	110	96.5	85.2
RPMI 5 mM glucose + 10% dialyzed FBS, 1.71 µM	94.1	81.7	99.1
RPMI 5 mM glucose + 10% dialyzed FBS, 5.12 µM	87.3	84.5	84.1
RPMI 5 mM glucose + 10% dialyzed FBS, 15.4 µM	86.6	81.8	85.4
RPMI 5 mM glucose + 10% dialyzed FBS, 46.1 µM	64.1	67.9	76.8

Cc1cc(-c2ncc(CC(=O)Nc3ccc(-c4cnccn4)cn3)cc2C)ccn1
AUC of viability dose-response curve
Details	[1]	[2]	[3]
HPLM + 10% dialyzed FBS	462	458	445
RPMI 5 mM glucose + 10% FBS	458	439	466
RPMI 5 mM glucose + 10% dialyzed FBS	457	456	447

CC(=O)C1=C(O)C2(C)C(=CC1=O)Oc1c(C(C)=O)c(O)c(C)c(O)c12 (stereo not given)
AUC of viability dose-response curve
Details	[1]	[2]	[3]
HPLM + 10% dialyzed FBS	459	347	328
RPMI 5 mM glucose + 10% FBS	452	342	305
RPMI 5 mM glucose + 10% dialyzed FBS	448	375	321

cell viability [%], [4]
Details	HPLM + 10% dialyzed FBS	RPMI 5 mM glucose + 10% FBS
0.000781 µM	83.1	99.1
0.00234 µM	120	145
0.00702 µM	123	123
0.0211 µM	123	129
0.0632 µM	124	128
0.19 µM	133	152
0.569 µM	118	153
1.71 µM	149	124
5.12 µM	133	136
15.4 µM	149	133
46.1 µM	124	130

CCOC(=O)C(C)(C)Oc1ccc(Cl)cc1
AUC of viability dose-response curve
Details	[1]	[2]	[3]
HPLM + 10% dialyzed FBS	465	459	464
RPMI 5 mM glucose + 10% FBS	471	464	453
RPMI 5 mM glucose + 10% dialyzed FBS	476	461	453

Clc1ccccc1C(c1ccccc1)(c1ccccc1)n1cccn1
AUC of viability dose-response curve
Details	[1]	[2]	[3]
HPLM + 10% dialyzed FBS	467	470	454
RPMI 5 mM glucose + 10% FBS	456	462	445
RPMI 5 mM glucose + 10% dialyzed FBS	425	470	457

cell viability [%]
Details	[4]	[5]
HPLM + 10% dialyzed FBS, 0.000781 µM	104	123
HPLM + 10% dialyzed FBS, 0.00234 µM	121	134
HPLM + 10% dialyzed FBS, 0.00702 µM	119	119
HPLM + 10% dialyzed FBS, 0.0211 µM	123	129
HPLM + 10% dialyzed FBS, 0.0632 µM	113	125
HPLM + 10% dialyzed FBS, 0.19 µM	130	130
HPLM + 10% dialyzed FBS, 0.569 µM	118	122
HPLM + 10% dialyzed FBS, 1.71 µM	124	126
HPLM + 10% dialyzed FBS, 5.12 µM	126	128
HPLM + 10% dialyzed FBS, 15.4 µM	107	116
HPLM + 10% dialyzed FBS, 46.1 µM	121	114
RPMI 5 mM glucose + 10% dialyzed FBS, 0.000781 µM	124	–
RPMI 5 mM glucose + 10% dialyzed FBS, 0.00234 µM	129	–
RPMI 5 mM glucose + 10% dialyzed FBS, 0.00702 µM	124	–
RPMI 5 mM glucose + 10% dialyzed FBS, 0.0211 µM	130	–
RPMI 5 mM glucose + 10% dialyzed FBS, 0.0632 µM	138	–
RPMI 5 mM glucose + 10% dialyzed FBS, 0.19 µM	121	–
RPMI 5 mM glucose + 10% dialyzed FBS, 0.569 µM	124	–
RPMI 5 mM glucose + 10% dialyzed FBS, 1.71 µM	122	–
RPMI 5 mM glucose + 10% dialyzed FBS, 5.12 µM	137	–
RPMI 5 mM glucose + 10% dialyzed FBS, 15.4 µM	122	–
RPMI 5 mM glucose + 10% dialyzed FBS, 46.1 µM	144	–

— the supplement of paper PMC11451515
